Experimental data published in patent US8980906B2, “Pyridonemorphinan analogs and biological activity on opioid receptors” (Purdue Pharma L.P., priority 2012, dated 2015).

Legend:
[1] = molecular target: T1, μ-opioid receptor (Homo sapiens (Human), UniProt P35372); assay: μ-opioid receptor radioligand dose-displacement binding assay ([3H]-diprenorphine); conditions: binding affinity, [3H]-diprenorphine displacement; read-out: Ki (nM) Opioid Receptor μ
Description: μ-Opioid Receptor Binding Assay Procedures: Radioligand dose-displacement binding assays for μ-opioid receptors used 0.3 nM [^3H]-diprenorphine (Perkin Elmer, Shelton, Conn.), with […] membrane protein/well in a final volume of 500 μl binding buffer (10 mM MgCl2, 1 mM EDTA, 5% DMSO, 50 mM HEPES, pH 7.4). Reactions were carried out in the absence or presence of increasing concentrations of unlabeled naloxone. All reactions were conducted in 96-deep well polypropylene plates for 2 hours at room temperature. Binding reactions were terminated by rapid filtration onto 96-well Unifilter GF/C filter plates (Perkin Elmer, Shelton, Conn.), presoaked in 0.5% polyethylenimine using a 96-well tissue harvester (Perkin Elmer, Shelton, Conn.) followed by performing three filtration washes with 500 μl of ice-cold binding buffer. Filter plates were subsequently dried at 50° C. for 2-3 hours. BetaScint scintillation cocktail (Perkin Elmer, Shelton, Conn.) was added (50 μl/well), and plates were counted using a Packard Top-Count for 1 min/well. The data were analyzed using the one-site competition curve fitting functions in GraphPad PRISM™ v. 3.0 or higher (San Diego, Calif.), or an in-house function for one-site competition curve-fitting.

[2] = molecular target: ORL-1 receptor (Homo sapiens (Human), UniProt P41146); assay: ORL-1 receptor radioligand binding assay ([3H]-nociceptin); conditions: binding affinity, [3H]-nociceptin displacement
Description: ORL-1 Receptor Binding Assay Procedure: Membranes from recombinant HEK-293 cells expressing the human opioid receptor-like receptor (ORL-1) (Perkin Elmer, Shelton, Conn.) were prepared by lysing cells in ice-cold hypotonic buffer (2.5 mM MgCl2, 50 mM HEPES, pH 7.4) (10 ml/10 cm dish) followed by homogenization with a tissue grinder/Teflon pestle. Membranes were collected by centrifugation at 30,000×g for […] at 4° C. and pellets resuspended in hypotonic buffer to a final concentration of 1-3 mg/ml. Protein concentrations were determined using the BioRad protein assay reagent with bovine serum albumen as standard. Aliquots of the ORL-1 receptor membranes were stored at −80° C.
Radioligand binding assays (screening and dose-displacement) used 0.1 nM [^3H]-nociceptin (Perkin Elmer, Shelton, Conn.; 87.7 Ci/mmole) with 12 μg membrane protein in a final volume of 500 μl binding buffer (10 mM MgCl2, 1 mM EDTA, 5% DMSO, 50 mM HEPES, pH 7.4). Non-specific binding was determined in the presence of […] unlabeled nociceptin (American Peptide Company). All reactions were performed in 96-deep well polypropylene plates for 1 h at room temperature. Binding reactions were terminated by rapid filtration onto 96-well Unifilter GF/C filter plates (Perkin Elmer, Shelton, Conn.) presoaked in 0.5% polyethylenimine (Sigma). Harvesting was performed using a 96-well tissue harvester (Perkin Elmer, Shelton, Conn.) followed by three filtration washes with 500 μl ice-cold binding buffer. Filter plates were subsequently dried at 50° C. for 2-3 hours. Fifty μl/well scintillation cocktail (Perkin Elmer, Shelton, Conn.) was added and plates were counted in a Packard Top-Count for 1 min/well. The data from screening and dose-displacement experiments were analyzed using Microsoft Excel and the curve fitting functions in GraphPad PRISM™, v. 3.0 or higher, respectively, or an in-house function for one-site competition curve-fitting.

[3] = molecular target: T1, μ-opioid receptor; assay: μ-opioid receptor [35S]GTPγS functional assay, HEK-293 or CHO cells; format: biochemical; conditions: for Emax: relative to DAMGO, HEK-293 or CHO cells
[4] = molecular target: T2, κ-opioid receptor (Homo sapiens (Human), UniProt P41145); assay: κ-opioid receptor [35S]GTPγS functional assay, HEK-293 or CHO cells; format: biochemical; conditions: for Emax: relative to U69,593, HEK-293 or CHO cells
[5] = molecular target: T2, κ-opioid receptor; assay: κ-opioid receptor radioligand dose-displacement binding assay ([3H]-U69,593); conditions: binding affinity, [3H]-U69,593 displacement
How it was run: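 Competition binding with 0.4 nM [3H]-U69,593 and 15 μg membrane protein from HEK 293 cells expressing recombinant human κ receptor, in 50 mM Tris pH 7.4 with 5% DMSO, 1 h at about 25 °C. Nonspecific binding defined with 10 μM naloxone or U69,593; bound ligand collected by GF/C filtration and scintillation counting.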

[6] = molecular target: δ-opioid receptor (Homo sapiens (Human), UniProt P41143); assay: δ-opioid receptor radioligand dose-displacement binding assay ([3H]-Naltrindole); conditions: binding affinity, [3H]-Naltrindole displacement
Description: δ-Opioid Receptor Binding Assay Procedures: δ-Opioid Receptor Binding Assay Procedures were conducted as follows. Radioligand dose-displacement assays used 0.2 nM [^3H]-Naltrindole (Perkin Elmer, Shelton, Conn.; 33.0 Ci/mmole) with 5 μg membrane protein (Perkin Elmer, Shelton, Conn.) in a final volume of 500 μl binding buffer (5 mM MgCl2, 5% DMSO, 50 mM Trizma base, pH 7.4). Non-specific binding was determined in the presence of 25 μM unlabeled naloxone. All reactions were performed in 96-deep well polypropylene plates for 1 hour at a temperature of about 25° C. Binding reactions were terminated by rapid filtration onto 96-well Unifilter GF/C filter plates (Perkin Elmer, Shelton, Conn.) presoaked in 0.5% polyethylenimine (Sigma). Harvesting was performed using a 96-well tissue harvester (Perkin Elmer, Shelton, Conn.) followed by five filtration washes with 500 μl ice-cold binding buffer. Filter plates were subsequently dried at 50° C. for 1-2 hours. Fifty μl/well scintillation cocktail (Perkin Elmer, Shelton, Conn.) was added and plates were counted in a Packard Top-Count for 1 min/well.

δ-opioid receptor, sequence (P41143 whole entry, looked up): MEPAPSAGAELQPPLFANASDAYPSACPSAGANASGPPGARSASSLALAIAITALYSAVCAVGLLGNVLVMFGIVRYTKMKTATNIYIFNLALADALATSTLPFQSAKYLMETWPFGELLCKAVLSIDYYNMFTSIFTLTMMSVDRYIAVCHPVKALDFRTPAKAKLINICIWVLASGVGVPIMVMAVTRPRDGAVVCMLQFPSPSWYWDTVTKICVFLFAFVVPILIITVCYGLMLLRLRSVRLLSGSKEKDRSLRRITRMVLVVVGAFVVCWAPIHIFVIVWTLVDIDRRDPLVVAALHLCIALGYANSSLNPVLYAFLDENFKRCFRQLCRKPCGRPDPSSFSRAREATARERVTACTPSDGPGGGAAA

With `C[C@H](NC(=O)c1cc2c([nH]c1=O)C[C@]13CCN(CC4CC4)[C@H](Cc4ccc(O)cc41)[C@@H]3C2)C(N)=O` [Compound 22, (6R,6aR,12aS)—N—((S)-1-amino-1-oxopropan-2-yl)-15-(cyclopropylmethyl)-2-hydroxy-10-oxo-6,6a,7,10,11,12-hexahydro-5H-6,12a-(epiminoethano)naphtho[2,1-g]quinoline-9-carboxamide] the Ki [1] was 0.56 ± 0.11 nM, the Ki [2] was 1.2 ± 0.21 nM and the EC50 [3] was 4.22 ± 1 nM. It also gave an Emax [3] of 30 ± 3.21%, an EC50 [4] of 9.89 ± 2.4 nM and an Emax [4] of 36.7 ± 2.73%.

`COC(=O)c1cc2c([nH]c1=O)C[C@]13CCN(CC4CC4)[C@H](Cc4ccc(OC)cc41)[C@@H]3C2` [Compound 3, (6R,6aR,12aS)-methyl 15-(cyclopropylmethyl)-2-methoxy-10-oxo-6,6a,7,10,11,12-hexahydro-5H-6,12a-(epiminoethano)naphtho[2,1-g]quinoline-9-carboxylate] showed a Ki [1] of 449 ± 171 nM, an EC50 [3] of 34.9 ± 6.84 nM and an Emax [3] of 15.7 ± 3.48%. For the same compound, the Ki [5] was 3.85 ± 1.09 nM, the EC50 [4] was 39.1 ± 2.6 nM and the Emax [4] was 52.3 ± 1.76%. It also gave a Ki [6] of 18.9 ± 7.84 nM.

For `NC(=O)CNC(=O)c1cc2c([nH]c1=O)C[C@]13CCN(CC4CC4)[C@H](Cc4ccc(O)cc41)[C@@H]3C2` [Compound 21, (6R,6aR,12aS)—N-(2-amino-2-oxoethyl)-15-(cyclopropylmethyl)-2-hydroxy-10-oxo-6,6a,7,10,11,12-hexahydro-5H-6,12a-(epiminoethano)naphtho[2,1-g]quinoline-9-carboxamide], the Ki [1] was 0.59 ± 0.15 nM, the Ki [2] was 2.04 ± 0.49 nM and the EC50 [3] was 1.73 ± 0.41 nM. The Emax [3] was 23.7 ± 2.19%, the EC50 [4] was 4.19 ± 0.79 nM and the Emax [4] was 41 ± 5.29%.
